{
  "source": "PubChem BioAssay AID434932",
  "about": "(The Scripps Research Institute Molecular Screening Center, 2010)",
  "note": "The source made the active and inactive calls.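 Rule for the calls: active = STAT1 activated, EC50 at most 10 µM; inactive = Over 10 µM EC50.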",
  "data": [
    {"tested_on": "NIH 3T3 STAT1-luciferase reporter, IFN-gamma, luminescence", "assay": "enhancers of IFN-gamma-induced STAT1 luciferase – cell-based, luminescence, NIH 3T3, dose response, powders, late-stage follow-up (AID 434932)", "values": [
      {"smiles": "CCOC(=O)/C(C#N)=C/c1cc(C)n(-c2ccccc2)c1C", "EC50": "3.31 µM"},
      {"smiles": "Cc1nnc(SCC(=O)Nc2ccc(-c3nc4ccccc4s3)cc2)s1", "EC50": "> 55.7 µM (inactive)"},
      {"smiles": "CC(=O)NC(=S)Nc1sc2c(c1C#N)CCCCC2", "EC50": "> 55.7 µM (inactive)"},
      {"smiles": "O=C(Nc1nc2ccccc2s1)c1cc2ccccc2s1", "EC50": "0.835 µM"},
      {"smiles": "COc1ccc2[nH]c3c(c2c1)CCn1c-3nc2ccccc2c1=O", "EC50": "< 0.00283 µM"},
      {"smiles": "COc1ccc(-c2csc(N3C(=O)CNC3=S)n2)cc1", "EC50": "2.01 µM"},
      {"smiles": "O=C(/C=C/Nc1ccccc1F)c1ccc(Br)cc1", "EC50": "> 55.7 µM (inactive)"},
      {"smiles": "Cc1cc(-c2ccc(F)cc2)n2ncc(-c3ccccc3)c2n1", "EC50": "0.0643 µM"},
      {"smiles": "CCN(CC)c1ccc2cc(C(=O)Nc3ccccn3)c(=O)oc2c1", "EC50": "10 µM (inactive)"},
      {"smiles": "COc1ccc(-c2cc(C)nc3c(-c4ccccc4)cnn23)cc1", "EC50": "4.04 µM"}
    ]}
  ]
}
